pIC50: −log10 of the molar value.

The first assay relates to primary chicken neurons. As to the kind of experiment: Inhibition of Abeta 1-42 toxicity on primary chicken neurons (MTT). The settings on record: Conc. 0.1 μM; 10 μM Aβ1-42 aggregated together with compound for 48 h. More on the design: key: No: no effect; +: minor positive effect on cell viability in the presence of aggregated Aβ 1-42; ++: medium positive effect on cell viability in the presence of aggregated Aβ 1-42; +++: strong positive effect on cell viability in the presence of aggregated Aβ 1-42. Format: cell-based. The procedure: One-day-old fertilized eggs are stored under appropriate conditions until start of breeding. On embryonic day 0 eggs are transferred to the breeding incubator and under turning, kept at 37.8° C. and 55% humidity until embryonic day eight. Neurons are prepared as follows: In short, embryos are transferred to a plastic dish, and decapitated. Both brain hemispheres are removed, collected and any loose tissue removed. Hemispheres are mechanically dissociated and 4.8×10^4 cells per well (96-well plates) are seeded in a volume of 160 μl.
Aβ1-42 (MW 4514.1) was obtained from American Peptide Company as a lyophilized powder. A stock solution of 340 μM Aβ1-42 was prepared in 50 mM Tris-Buffer, 150 mM NaCl, pH7.6 according to the manufacturer's instructions. After sonication, the stock solution is diluted 1:1 with the test compounds to obtain a concentration of 170, 17 and 1.7 μM. After aggregation at 4° C. for 48 h, the solutions are sonicated again prior to application to the cells. The final concentration of Aβ1-42 applied to the primary chicken neurons is 10 μM.
Aβ1-42 aggregated together with compound for 48 hrs was applied to chicken neurons at DIV4 (days in vitro) and analyzed at DIV10 (144 hrs) and all others were applied to chicken neurons at DIV6 and analysed at DIV10 (96 hrs).
Viability of cultures is determined by the MTT assay. The MTT assay allows for the measurement of the mitochondrial dehydrogenase activity which reduces yellow MTT to dark blue formazan crystals. Since this reaction is catalyzed in living cells only this assay is used for the determination of cell viability. MTT solution is added to each well in a final concentration of 0.5 mg/ml. After 2 hours the MTT containing medium is aspired. Cells are lysed in 3% SDS and the formazan crystals are dissolved in isopropanol/HCl. Optical density is measured with a plate-reader at wavelength 570 nm. Cell survival rate is expressed as a percentage of optical density (OD) relative to control cells not treated with Aβ or compound.
Turning to `O=C(O)Cc1cc(C(=O)c2ccccc2)sc1-c1ccc(-c2sc(C(=O)c3ccccc3)cc2CC(=O)O)s1` [Example 95, 2-(5-benzoyl-2-{5-[5-benzoyl-3-(carboxymethyl)thiophen-2-yl]thiophen-2-yl}thiophen-3-yl)acetic acid], the “Rescue of Abeta toxicity (MTT)” value is on record as “no”.
Still for that read-out and setting: with `O=C(O)Cc1cc(C(=O)c2cccs2)sc1-c1ccc(-c2sc(C(=O)c3cccs3)cc2CC(=O)O)s1` [Example 93, 2-(2-{5-[3-(carboxymethyl)-5-(thiophene-2-carbonyl)thiophen-2-yl]thiophen-2-yl}-5-(thiophene-2-carbonyl)thiophen-3-yl)acetic acid] the entry was “+”.

Still in this assay, the particulars now being: Conc. 1 μM; 10 μM Aβ1-42 aggregated together with compound for 48 h.
As to `O=C(O)Cc1cc(C(=O)c2ccccc2)sc1-c1ccc(-c2sc(C(=O)c3ccccc3)cc2CC(=O)O)s1` [Example 95, 2-(5-benzoyl-2-{5-[5-benzoyl-3-(carboxymethyl)thiophen-2-yl]thiophen-2-yl}thiophen-3-yl)acetic acid], the “Rescue of Abeta toxicity (MTT)” value was “no”.
Still for that read-out and setting: in the case of `O=C(O)Cc1cc(C(=O)c2cccs2)sc1-c1ccc(-c2sc(C(=O)c3cccs3)cc2CC(=O)O)s1` [Example 93, 2-(2-{5-[3-(carboxymethyl)-5-(thiophene-2-carbonyl)thiophen-2-yl]thiophen-2-yl}-5-(thiophene-2-carbonyl)thiophen-3-yl)acetic acid] it was “++”.

Staying with this assay, now noted: Conc. 10 μM; 10 μM Aβ1-42 aggregated together with compound for 48 h.
For the molecule `O=C(O)Cc1cc(C(=O)c2ccccc2)sc1-c1ccc(-c2sc(C(=O)c3ccccc3)cc2CC(=O)O)s1` [Example 95, 2-(5-benzoyl-2-{5-[5-benzoyl-3-(carboxymethyl)thiophen-2-yl]thiophen-2-yl}thiophen-3-yl)acetic acid], the “Rescue of Abeta toxicity (MTT)” value is “+++”.
On the same count and under the same terms, with `O=C(O)Cc1cc(C(=O)c2cccs2)sc1-c1ccc(-c2sc(C(=O)c3cccs3)cc2CC(=O)O)s1` [Example 93, 2-(2-{5-[3-(carboxymethyl)-5-(thiophene-2-carbonyl)thiophen-2-yl]thiophen-2-yl}-5-(thiophene-2-carbonyl)thiophen-3-yl)acetic acid] the entry was “+++”.

In another assay the target is T1, biotinylated Aβ1-42 (Homo sapiens, UniProt P05067).
T1 construct: To assure monomerisation of biotinylated Aβ1-42 (Anaspec #23523-0.5) the peptide was thoroughly monomerised; purchased Anaspec 23523-0.5
T1 sequence (P05067 672-713 limits assumed): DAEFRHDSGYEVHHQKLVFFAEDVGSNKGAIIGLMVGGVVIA
Description: Inhibition of Abeta oligomerisation (biotinylated Aβ1-42, neutravidin plate, streptavidin-HRP). It counts as biochemical. Conditions: inhibition of Aβ1-42 aggregation, approximately 12 nM Aβ1-42, PBS pH 7.4, 2% DMSO, 30 min RT.
The molecule `O=C(O)Cc1ccsc1-c1ccc(-c2cc(CC(=O)O)c(-c3ccc(-c4sc(-c5ccc(-c6sccc6CC(=O)O)s5)cc4CC(=O)O)s3)s2)s1` [Example 84, 2-(2-{5-[3-(Carboxymethyl)-5-{5-[3-(carboxymethyl)thiophen-2-yl]thiophen-2-yl}thiophen-2-yl]thiophen-2-yl}-5-{5-[3-(carboxymethyl)thiophen-2-yl]thiophen-2-yl}thiophen-3-yl)acetic acid] had a pIC50 of 5.80.
As for `O=C(O)Cc1cc(-c2cccs2)sc1-c1ccc(-c2sc(-c3ccc(C(=O)O)s3)cc2CC(=O)O)s1` [Example 12, 5-[4-(Carboxymethyl)-5-{5-[3-(carboxymethyl)-5-(thiophen-2-yl)thiophen-2-yl]thiophen-2-yl}thiophen-2-yl]thiophene-2-carboxylic acid], the pIC50 was 5.80.
Turning to `CS(=O)(=O)c1ccc(-c2cc(CC(=O)O)c(-c3ccc(-c4sc(-c5ccc(C(=O)O)s5)cc4CC(=O)O)s3)s2)cc1` [Example 75, 5-[4-(Carboxymethyl)-5-{5-[3-(carboxymethyl)-5-(4-methanesulfonylphenyl)thiophen-2-yl]thiophen-2-yl}thiophen-2-yl]thiophene-2-carboxylic acid], the pIC50 is 4.50.
On the same count and under the same terms, in the case of `Cc1ccc(-c2ccc(-c3cc(CC(=O)O)c(-c4ccc(-c5sc(-c6ccc(-c7ccc(C)cc7C(=O)O)s6)cc5CC(=O)O)s4)s3)s2)c(C(=O)O)c1` [Example 63, 2-{5-[5-(5-{5-[5-(2-Carboxy-4-methylphenyl)thiophen-2-yl]-3-(carboxymethyl)thiophen-2-yl}thiophen-2-yl)-4-(carboxymethy)thiophen-2-yl]thiophen-2-yl}-5-methylbenzoic acid] it was 6.00; in that of `O=C(O)Cc1ccsc1-c1ccc(-c2sc(-c3ccc(-c4cc(CC(=O)O)c(-c5ccc(-c6sccc6CC(=O)O)cc5)s4)s3)cc2CC(=O)O)cc1` [Example 40, 2-(5-{5-[4-(Carboxymethyl)-5-{4-[3-(carboxymethyl)thiophen-2-yl]phenyl}thiophen-2-yl]thiophen-2-yl}-2-{4-[3-(carboxymethyl)thiophen-2-yl]phenyl}thiophen-3-yl)acetic acid], 5.90; in that of `O=C(O)Cc1cc(Cl)sc1-c1ccc(-c2sc(-c3ccc(-c4cc(CC(=O)O)c(-c5ccc(-c6sc(Cl)cc6CC(=O)O)s5)s4)s3)cc2CC(=O)O)s1` [Example 58, 2-(2-{5-[3-(Carboxymethyl)-5-{5-[4-(carboxymethyl)-5-{5-[3-(carboxymethyl)-5-chlorothiophen-2-yl]thiophen-2-yl}thiophen-2-yl]thiophen-2-yl}thiophen-2-yl]thiophen-2-yl}-5-chlorothiophen-3-yl)acetic acid], 6.40.
Same read-out and setting: in the case of `CS(=O)(=O)c1ccc(-c2cc(CCN)c(-c3ccc(-c4sc(-c5ccc(S(C)(=O)=O)cc5)cc4CCN)s3)s2)cc1` [Example 41, 2-(2-{5-[3-(2-Aminoethyl)-5-(4-methanesulfonylphenyl)thiophen-2-yl]thiophen-2-yl}-5-(4-methanesulfonylphenyl)thiophen-3-yl)ethan-1-amine] it was 6.10; in that of `O=C(O)Cc1cccc(-c2ccc(-c3cc(CC(=O)O)c(-c4ccc(-c5sc(-c6ccc(-c7cccc(CC(=O)O)c7)s6)cc5CC(=O)O)s4)s3)s2)c1` [Example 57, 2-(2-{5-[3-(Carboxymethyl)-5-{5-[3-(carboxymethyl)phenyl]thiophen-2-yl}thiophen-2-yl]thiophen-2-yl}-5-{5-[3-(carboxymethyl)phenyl]thiophen-2-yl}thiophen-3-yl)acetic acid], 6.40; in that of `O=C(O)Cc1cc(-c2cccc(C(=O)O)c2)sc1-c1ccc(-c2sc(-c3ccc(C(=O)O)s3)cc2CC(=O)O)s1` [Example 14, 5-[4-(Carboxymethyl)-5-{5-[3-(carboxymethyl)-5-(3-carboxyphenyl)thiophen-2-yl]thiophen-2-yl}thiophen-2-yl]thiophene-2-carboxylic acid], 5.70.
With `COC(=O)Cc1cc(-c2ccc(C(=O)O)s2)sc1-c1ccc(-c2sc(-c3ccc(C(=O)O)s3)cc2CC(=O)OC)s1` [Example 69, 5-(5-{5-[5-(5-Carboxythiophen-2-yl)-3-(2-methoxy-2-oxoethyl)thiophen-2-yl]thiophen-2-yl}-4-(2-methoxy-2-oxoethyl)thiophen-2-yl)thiophene-2-carboxylic acid], the pIC50 is 5.60.
On the same count and under the same terms, with `N#Cc1cccc(-c2cc(CC(=O)O)c(-c3ccc(-c4sc(-c5cccc(C#N)c5)cc4CC(=O)O)s3)s2)c1` [Example 83, 2-(2-{5-[3-(Carboxymethyl)-5-(3-cyanophenyl)thiophen-2-yl]thiophen-2-yl}-5-(3-cyanophenyl)thiophen-3-yl)acetic acid] the figure was 4.90.
Still for that read-out and setting: in the case of `NCCc1ccsc1-c1ccc(-c2sccc2CCN)s1` [Example 8, 2-(2-{5-[3-(2-Aminoethyl)thiophen-2-yl]thiophen-2-yl}thiophen-3-yl)ethan-1-amine] it was 4.80.
The same measure, in the same setting: with `O=C(O)Cc1cc(-c2ccccc2C(=O)O)sc1-c1ccc(-c2sc(-c3ccccc3C(=O)O)cc2CC(=O)O)s1` [Example 11, 2-[4-(Carboxymethyl)-5-{5-[3-(carboxymethyl)-5-(2-carboxyphenyl)thiophen-2-yl]thiophen-2-yl}thiophen-2-yl]benzoic acid] the figure was 4.90; with `N#Cc1ccc(-c2cc(CC(=O)O)c(-c3ccc(-c4sc(-c5ccc(C#N)s5)cc4CC(=O)O)s3)s2)s1` [Example 85, 2-(2-{5-[3-(Carboxymethyl)-5-(5-cyanothiophen-2-yl)thiophen-2-yl]thiophen-2-yl}-5-(5-cyanothiophen-2-yl)thiophen-3-yl)acetic acid], 5.40.
`CNS(=O)(=O)c1ccc(-c2cc(CC(=O)O)c(-c3ccc(-c4sc(-c5ccc(S(=O)(=O)NC)cc5)cc4CC(=O)O)s3)s2)cc1` [Example 23, 2-(2-{5-[3-(Carboxymethyl)-5-[4-(methylsulfamoyl)phenyl]thiophen-2-yl]thiophen-2-yl}-5-[4-(methylsulfamoyl)phenyl]thiophen-3-yl)acetic acid] showed a pIC50 of 5.50.
Still for that read-out and setting: with `CS(=O)(=O)c1ccc(-c2sc(-c3ccc(-c4cc(CC(=O)O)c(-c5ccc(S(C)(=O)=O)cc5)s4)s3)cc2CC(=O)O)cc1` [Example 36, 2-(5-{5-[4-(Carboxymethyl)-5-(4-methanesulfonylphenyl)thiophen-2-yl]thiophen-2-yl}-2-(4-methanesulfonylphenyl)thiophen-3-yl)acetic acid] the figure was 5.30.
On the same count and under the same terms, with `Cn1nc(C(F)(F)F)cc1-c1cc(CC(=O)O)c(-c2ccc(-c3sc(-c4cc(C(F)(F)F)nn4C)cc3CC(=O)O)s2)s1` [Example 77, 2-(2-{5-[3-(Carboxymethyl)-5-[1-methyl-3-(trifluoromethyl)-1H-pyrazol-5-yl]thiophen-2-yl]thiophen-2-yl}-5-[1-methyl-3-(trifluoromethyl)-1H-pyrazol-5-yl]thiophen-3-yl)acetic acid] the figure was 5.30; with `CS(=O)(=O)c1cccc(-c2cc(CC(=O)O)c(-c3ccc(-c4sc(-c5cccc(S(C)(=O)=O)c5)cc4CC(=O)O)s3)s2)c1` [Example 22, 2-(2-{5-[3-(Carboxymethyl)-5-(3-methanesulfonylphenyl)thiophen-2-yl]thiophen-2-yl}-5-(3-methanesulfonylphenyl)thiophen-3-yl)acetic acid], 5.60.

By pIC50 is commonly meant −log10 of the IC50, conventionally taken in molar units.

The values above are taken from patent publication US9359311B2, “Substituted aromatic oligomers” (NEUROSCIOS GMBH, priority 2011, dated 2016).
